The record followed here is US10899754B2, “Modulators of indoleamine 2,3-dioxygenase” (GLAXOSMITHKLINE INTELLECTUAL PROPERTY DEVELOPMENT LIMITED, priority 2016, dated 2021).

What all share (format): cell-based
For data set [1], the target named is T1, indoleamine 2, 3-dioxygenase (IDO1) (Homo sapiens, UniProt P14902). The data set can be described thus: IDO1 HeLa RapidFire MS assay (kynurenine detection by mass spectrometry). Particulars: HeLa cells, pIC50, read-out: IDO1_HELA_PXC50 (converted). Further details: to induce the expression of indoleamine 2, 3-dioxygenase (IDO1). The method in brief:
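Compound potency reported as pIC50 from kynurenine/internal-standard ratio (RapidFire MS) in supernatant of IFN-γ-induced (10 nM) HeLa cells, 5,000 per well, after 2 days' treatment with 11-point dilutions. Cytotoxicity in the same format by luminescent ATP detection, reported as pCC50.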

The target of data set [2] is T1, indoleamine 2, 3-dioxygenase (IDO1). The data set can be described thus: IDO1 PBMC RapidFire MS assay (kynurenine detection by mass spectrometry). More on the design: to induce the expression of indoleamine 2, 3-dioxygenase (IDO1); host or cells: human PBMC stimulated with IFN-gamma and LPS. As to conditions: human PBMC stimulated with IFN-γ and LPS, 2 days, pIC50, read-out: PBMC PXC50 (converted). The method in brief: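 PBMCs (50,000 cells/well) stimulated with IFN-γ 100 ng/ml plus LPS 50 ng/ml, treated with 11-point 3-fold compound series for 2 days at 37° C. Supernatant kynurenine measured by RapidFire MS, normalised to internal standard; parallel cytotoxicity by CellTiter-Glo luminescence; curves fitted for XC50.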

The subject of data set [3] is human peripheral blood mononuclear cells (PBMC). The data set can be described thus: PBMC cytotoxicity assay (CellTiter-Glo). Particulars: 2 days, pCC50. In a few lines: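 Human PBMC (50,000 cells/well) stimulated with IFN-γ 100 ng/ml and LPS 50 ng/ml were exposed to 11-point 3-fold compound dilutions for 2 days at 37 °C, 5% CO2. Viability read by CellTiter-Glo ATP luminescence and normalized to no-cell and stimulated-DMSO controls. XC50 derived by four-parameter fit.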
(In ATP-based viability assays light output follows the ATP content of the culture.)

Data set [4] relates to human epithelial HeLa cells. In words: HeLa cytotoxicity assay (CellTiter-Glo). Particulars: pCC50. In a few lines: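 HeLa cells (5,000/well) stimulated with 10 nM IFN-γ, exposed to 11-point 3-fold compound dilutions for 2 days at 37 °C; viability by CellTiter-Glo ATP luminescence. Normalized to cell-free (100% cytotoxicity) and stimulated-cell DMSO (0%) controls; four-parameter fit gives pCC50.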

T1 sequence (P14902 whole entry): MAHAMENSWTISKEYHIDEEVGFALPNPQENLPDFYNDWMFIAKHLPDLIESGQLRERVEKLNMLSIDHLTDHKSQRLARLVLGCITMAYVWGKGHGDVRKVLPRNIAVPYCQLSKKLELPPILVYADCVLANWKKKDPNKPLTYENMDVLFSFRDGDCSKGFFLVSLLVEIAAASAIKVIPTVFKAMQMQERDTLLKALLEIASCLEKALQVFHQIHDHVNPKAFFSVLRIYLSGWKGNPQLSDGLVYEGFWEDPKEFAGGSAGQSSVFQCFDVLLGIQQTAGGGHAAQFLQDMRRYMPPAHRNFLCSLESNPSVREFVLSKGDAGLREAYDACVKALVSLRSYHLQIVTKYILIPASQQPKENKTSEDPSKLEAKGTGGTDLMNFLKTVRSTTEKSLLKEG

Turning to `CC(C)CN(c1ccc([C@@H](C)CC(=O)O)cc1Nc1ccnc(Cl)n1)C1CCCCC1` [example 300], the IC50 in data set [1] is 3.98 nM; in data set [2], 2.51 nM. Moreover, in data set [3], the “PBMC TOX PXC50” value is under 5. In addition, in data set [4], the HELA_IDO1_TOX_PXC50 is on record as under 5.

Consider `CC(C)CN(c1ccc(-c2cccnc2C(=O)O)cc1Nc1nc(C(F)(F)F)ns1)C1CCOCC1` [example 269, 3-{4-[(2-methylpropyl)(oxan-4-yl)amino]-3-{[3-(trifluoromethyl)-1,2,4-thiadiazol-5-yl]amino}phenyl}pyridine-2-carboxylic acid], for which the IC50 was 316 nM in data set [1] and 31.6 nM in data set [2]. For the same molecule, the “PBMC TOX PXC50” value in data set [3] is under 5. For the same molecule, the HELA_IDO1_TOX_PXC50 in data set [4] was under 5.

Turning to `CC(C)CN(c1ccc(C(C)CC(=O)O)cc1Nc1nc(C(F)(F)F)ns1)C1CCOCC1` (centres unmarked) [example 202, 3-{4-[(2-methylpropyl)(oxan-4-yl)amino]-3-{[3-(trifluoromethyl)-1,2,4-thiadiazol-5-yl]amino}phenyl}butanoic acid], the IC50 in data set [1] is 3.16 nM; in data set [2], 1.58 nM. For the same molecule, the “PBMC TOX PXC50” value in data set [3] is reported as under 5. The molecule further gave an HELA_IDO1_TOX_PXC50 in data set [4] of under 5.

Turning to `CO[C@H]1CC[C@H](N(CC(C)C)c2ccc(-c3ccccc3C(=O)O)cc2Nc2nc(C(F)(F)F)ns2)CC1` [Example 111, 4′-(isobutyl((1r,4r)-4-methoxycyclohexyl)amino)-3′-((3-(trifluoromethyl)-1,2,4-thiadiazol-5-yl)amino)-[1,1′-biphenyl]-2-carboxylic Acid], the IC50 is 10 nM in data set [1] and 3.98 nM in data set [2]. Besides, the “PBMC TOX PXC50” value in data set [3] is under 5. Also, in data set [4], the HELA_IDO1_TOX_PXC50 was under 5.

As for `CC(C)CN(c1ccc([C@H](C)CC(=O)O)cc1Nc1ccc(Cl)nc1)C1CCCCC1` [Example 74, (R)-3-(3-((6-chloropyridin-3-yl)amino)-4-(cyclohexyl(isobutyl)amino)phenyl)butanoic Acid], the IC50 in data set [1] is 3.98 nM; in data set [2] it was 0.794 nM. The “PBMC TOX PXC50” value in data set [3] was 6.5. Also, the HELA_IDO1_TOX_PXC50 in data set [4] was under 5.

With `CC(C)CN(c1ccc(C(C)(C)CC(=O)O)cc1Nc1nc(C(F)(F)F)ns1)C1CCOCC1` [Example 1, 3-(4-(isobutyl(tetrahydro-2H-pyran-4-yl)amino)-3-((3-(trifluoromethyl)-1,2,4-thiadiazol-5-yl)amino)phenyl)-3-methylbutanoic Acid], the IC50 in data set [1] is 3.98 nM; in data set [2], 0.794 nM. Also, the “PBMC TOX PXC50” value in data set [3] is under 5. In data set [4], the HELA_IDO1_TOX_PXC50 is reported as under 5.

Take `CC(C)CN(c1ccc(C(C)CC(=O)O)cc1NCc1ncccn1)C1CCCCC1` (centres unmarked) [example 160, 3-{4-[cyclohexyl(2-methylpropyl)amino]-3-{[(pyrimidin-2-yl)methyl]amino}phenyl} butanoic acid]: the IC50 in data set [1] and in data set [2] was over 10000 nM in each case. In addition, in data set [3], the “PBMC TOX PXC50” value was under 5. In addition, the HELA_IDO1_TOX_PXC50 in data set [4] is given as under 5.

Take `COCc1ccc(Nc2cc([C@H](C)CC(=O)O)ccc2N(CC(C)C)C2CCOCC2)cn1` [Example 31, (R)-3-(4-(isobutyl(tetrahydro-2H-pyran-4-yl)amino)-3-((6-(methoxymethyl)pyridin-3-yl)amino)phenyl)butanoic Acid]: the IC50 is 20 nM in data set [1] and 10 nM in data set [2]. Besides, the “PBMC TOX PXC50” value in data set [3] is reported as under 5. This molecule also registered an HELA_IDO1_TOX_PXC50 in data set [4] of 5.

`CC(C)CN(CC(C)C)c1ccc(-c2ccccc2C(=O)O)cc1Nc1nc(C2CC2)ns1` [example 288, 4′-[bis(2-methylpropyl)amino]-3′-[(3-cyclopropyl-1,2,4-thiadiazol-5-yl)amino]-[1,1′-biphenyl]-2-carboxylic acid]: the IC50 in data set [1] was 316 nM; in data set [2] it was 100 nM. Also, the “PBMC TOX PXC50” value in data set [3] was under 5. The molecule also came in with an HELA_IDO1_TOX_PXC50 in data set [4] of under 5.

Take `Cc1nnc(Nc2cc([C@H](C)CC(=O)O)ccc2N(CC(C)C)C2CCOCC2)s1` [example 215, (3R)-3-{3-[(5-methyl-1,3,4-thiadiazol-2-yl)amino]-4-[(2-methylpropyl)(oxan-4-yl)amino]phenyl}butanoic acid]: the IC50 in data set [1] was 20 nM; in data set [2] it was 31.6 nM. Also, the “PBMC TOX PXC50” value in data set [3] is given as under 5. In data set [4], this molecule came in with an HELA_IDO1_TOX_PXC50 of under 5.

On to `Cc1nsc(Nc2cc(-c3ccccc3C(=O)O)ccc2N(CC(C)C)CC(C)C)n1` [example 286, 4′-[bis(2-methylpropyl)amino]-3′-[(3-methyl-1,2,4-thiadiazol-5-yl)amino]-[1,1′-biphenyl]-2-carboxylic acid], for which the IC50 is 501 nM in data set [1] and 200 nM in data set [2]. In addition, in data set [3], the “PBMC TOX PXC50” value was under 5. For the same molecule, in data set [4], the HELA_IDO1_TOX_PXC50 is under 5.

As to `CC(C)CN(CC(C)C)c1ccc(C(C)CC(=O)O)cc1Nc1nc(-c2ccccc2)ns1` (centres unmarked) [example 115, 3-{4-[bis(2-methylpropyl)amino]-3-[(3-phenyl-1,2,4-thiadiazol-5-yl)amino]phenyl}butanoic acid], the values for the IC50 in data set [1] and in data set [2] were 3160 nM and 2000 nM, respectively. The “PBMC TOX PXC50” value in data set [3] came to 4.9. The molecule further displayed an HELA_IDO1_TOX_PXC50 in data set [4] of under 4.3.

Regarding `CC(C)CN(c1ccc(C(C)CC(=O)O)cc1NC1=N[C@@H](c2ccccc2)CO1)C1CCCCC1` (stereo partly drawn) [example 153, 3-{4-[cyclohexyl(2-methylpropyl)amino]-3-{[(4S)-4-phenyl-4,5-dihydro-1,3-oxazol-2-yl]amino}phenyl}butanoic acid], the IC50 was 3980 nM in data set [1] and 2000 nM in data set [2]. Moreover, in data set [3], the “PBMC TOX PXC50” value is listed as under 5. The same molecule showed an HELA_IDO1_TOX_PXC50 in data set [4] of under 5.

As for `CC(C)CN(CC(C)C)c1ccc(-c2ccccc2C(=O)O)cc1Nc1nc(C(F)(F)F)ns1` [Example 90, 4′-(diisobutylamino)-3′-((3-(trifluoromethyl)-1,2,4-thiadiazol-5-yl)amino)-[1,1′-biphenyl]-2-carboxylic Acid], the IC50 in data set [1] was 25.1 nM; in data set [2], 10 nM. For the same molecule, in data set [3], the “PBMC TOX PXC50” value was under 5. Also, the HELA_IDO1_TOX_PXC50 in data set [4] is recorded as under 5.

For `CC(C)CN(c1ccc(-c2cnccc2C(=O)O)cc1Nc1nc2ccccc2o1)C1CCCCC1` [example 289, 3-{3-[(1,3-benzoxazol-2-yl)amino]-4-[cyclohexyl(2-methylpropyl)amino]phenyl}pyridine-4-carboxylic acid], the IC50 was 1260 nM in data set [1] and 501 nM in data set [2]. Besides, in data set [3], the “PBMC TOX PXC50” value is recorded as under 5. Moreover, the HELA_IDO1_TOX_PXC50 in data set [4] is listed as under 5.

On to `CC(C)CN(c1ccc(C(C)CC(=O)O)cc1Nc1nc(Cl)ns1)C1CCOCC1` (centres unmarked) [Example 21, 3-(3-((3-chloro-1,2,4-thiadiazol-5-yl)amino)-4-(isobutyl(tetrahydro-2H-pyran-4-yl)amino)phenyl)butanoic Acid], for which the IC50 in data set [1] was 31.6 nM; in data set [2], 2.51 nM. Moreover, in data set [3], the “PBMC TOX PXC50” value was 5.2. In data set [4], the HELA_IDO1_TOX_PXC50 was under 5.

As to `CC(C)CN(c1ccc([C@H](C)CC(=O)O)cc1Nc1ccc(Cl)nc1)[C@H]1CC[C@H](O)CC1` [Example 49, (R)-3-(3-((6-chloropyridin-3-yl)amino)-4-(((1r,4R)-4-hydroxycyclohexyl) (isobutyl)amino)phenyl)butanoic Acid], the IC50 is 6.31 nM in data set [1] and 2 nM in data set [2]. Besides, the “PBMC TOX PXC50” value in data set [3] is on record as under 5. In data set [4], the HELA_IDO1_TOX_PXC50 was under 5.

Take `CC(C)CN(c1ccc([C@H](C)CC(=O)O)cc1Nc1nnc(C(C)C)[nH]1)C1CCOCC1` [example 212, (3R)-3-{4-[(2-methylpropyl)(oxan-4-yl)amino]-3-{[5-(propan-2-yl)-4H-1,2,4-triazol-3-yl]amino}phenyl}butanoic acid]: the figures for the IC50 in data set [1] and in data set [2] were 200 nM and 63.1 nM, respectively. Besides, the “PBMC TOX PXC50” value in data set [3] is recorded as under 5. In addition, the HELA_IDO1_TOX_PXC50 in data set [4] was under 5.

For `CC(C)CN(c1ccc(C(C)(C)CC(=O)O)cc1Nc1nc(Cl)ns1)C1CCOCC1` [Example 5, 3-(3-((3-chloro-1,2,4-thiadiazol-5-yl)amino)-4-(isobutyl(tetrahydro-2H-pyran-4-yl)amino)phenyl)-3-methylbutanoic Acid], the IC50 in data set [1] was 25.1 nM; in data set [2], 5.01 nM. Also, the “PBMC TOX PXC50” value in data set [3] was under 5. Moreover, the HELA_IDO1_TOX_PXC50 in data set [4] is recorded as under 5.

As for `CC(C)CN(CC(C)C)c1ccc([C@H](C)CC(=O)NS(C)(=O)=O)cc1Nc1nc(C(F)(F)F)ns1` [Example 109, (R)-3-(4-(diisobutylamino)-3-((3-(trifluoromethyl)-1,2,4-thiadiazol-5-yl)amino)phenyl)-N-(methylsulfonyl)butanamide], the IC50 is 31.6 nM in data set [1] and 10 nM in data set [2]. The “PBMC TOX PXC50” value in data set [3] was under 5. Also, the HELA_IDO1_TOX_PXC50 in data set [4] is on record as under 5.
